# Reference: publication PMC7249060, “The Antiproliferative Effects of Flavonoid MAO Inhibitors on Prostate Cancer Cells” (Molecules, 2020)
# Key:
# Assay type in all cases: biochemical
# hMAO-A [1] = target: T1, hMAO-A (Homo sapiens, UniProt P21397); test: MAO-Glow inhibitory potency (IC50) and relative selectivity; conditions: for MAO isozyme selectivity: comparison of hMAO-A and hMAO-B IC50s; for IC50: mean ± SEM, at least two experiments, LDS 40 μM; for hMAO-A relative selectivity (RSA): RSA = hMAO-B IC50/hMAO-A IC50
# T1 construct: purchased Sigma-Aldrich Co. (St. Louis, MO, USA)
# T1 sequence (P21397 1-527): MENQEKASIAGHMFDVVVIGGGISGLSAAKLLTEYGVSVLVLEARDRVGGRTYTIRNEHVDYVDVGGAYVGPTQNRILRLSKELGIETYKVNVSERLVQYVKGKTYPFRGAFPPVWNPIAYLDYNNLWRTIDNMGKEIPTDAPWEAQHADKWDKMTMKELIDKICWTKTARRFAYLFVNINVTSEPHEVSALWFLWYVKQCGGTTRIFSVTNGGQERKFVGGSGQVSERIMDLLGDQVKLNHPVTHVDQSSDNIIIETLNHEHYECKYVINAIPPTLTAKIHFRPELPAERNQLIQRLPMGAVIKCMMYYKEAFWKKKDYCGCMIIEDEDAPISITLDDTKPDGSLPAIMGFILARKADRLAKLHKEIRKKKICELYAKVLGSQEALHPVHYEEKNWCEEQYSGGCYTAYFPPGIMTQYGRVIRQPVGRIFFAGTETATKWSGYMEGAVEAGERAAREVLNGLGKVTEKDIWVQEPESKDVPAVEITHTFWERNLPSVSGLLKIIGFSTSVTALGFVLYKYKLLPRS
# Experimental: (§1) The inhibitory effects of the synthesized KKRs of hMAO-A and B were tested by measuring the decrease in arbitrary light units (ALU) signal produced by the optimized isozymes using the MAO-Glow™ Assay at 37 °C. In this assay, DMSO stock for each KKR compound was diluted with a reaction buffer of pH 7.4 to make a 4X working solution for a maximum final concentration of 100 μM and ≤1% DMSO. The experiments were run in the absence and presence of 4X the miscellaneous standards of MAO-BIs (DEP, PARG, and SAF) and MAO-AIs (PIRL and CLORG), with similar concentrations. In white opaque 96-well microplates, 12.5 μL of each compound was plated at RT and was followed by 25 μL of 2X cold hMAO-A or hMAO-B, for a final concentration of 0.44 U/mL. A related buffer substituted each isozyme to make the blank wells and substituted each compound to make the negative control wells. Following this, we added 12.5 μL of 4X LDS to make a final substrate concentration of 40- and 4-μM for hMAO-A and hMAO-B, respectively. All screen plates were incubated at 37 °C for 60 min. The plates of 50 μL/well were then taken out from the incubator, and their reactions were stopped by an equal volume of 50 μL of reporter luciferin detection reagent (RLDR). After 30 min, the luminescence signals for all plates were read on a Synergy HTX Multi-reader from Bio-Tek (Winooski, VT, USA).
# (§2) The experiments were performed in the presence and absence of the standard PILR. In white opaque 96-well plates, each KKR compound was serially diluted with a reaction buffer of pH 7.4 at the highest possible maximum final concentration, and the least used DMSO (<2%). In blank wells, the related reaction buffer substituted the isozyme. In negative control wells, the reaction buffer substituted each compound concentration. Then, the procedure was carried out as mentioned above (Section 4.2.2), and the reaction was detected on the Bio-Tek Synergy HTX Multi-Reader. The IC50 of each KKR on both isozymes was determined and subsequently the RSA and RSB was calculated.
# (§3) Statistical analyses were performed using the GraphPad Prism program (version 6.07 for Windows) from the GraphPad Prism Software Incorporated (San Diego, CA, USA). All data points and parameters were expressed as the mean ± SEM. All parameters were calculated from non-linear and linear regressions with the best R^2 values, no less than 93%. The inhibitory concentration of 50% of isozyme (IC50) of each compound was obtained by the interpolation of a normalized variable slope logarithmic curve. The RSA values of the selected compounds were calculated from their IC50 average means following the equation RSA = hMAO − B IC50/Hmao − A IC50(1)
# hMAO-B = target: T2, hMAO-B (Homo sapiens, UniProt P27338); test: MAO-Glow inhibitory potency (IC50); conditions: mean ± SEM, at least two experiments; LDS 4 μM
# T2 construct: purchased Sigma-Aldrich Co. (St. Louis, MO, USA)
# T2 sequence (P27338 1-520): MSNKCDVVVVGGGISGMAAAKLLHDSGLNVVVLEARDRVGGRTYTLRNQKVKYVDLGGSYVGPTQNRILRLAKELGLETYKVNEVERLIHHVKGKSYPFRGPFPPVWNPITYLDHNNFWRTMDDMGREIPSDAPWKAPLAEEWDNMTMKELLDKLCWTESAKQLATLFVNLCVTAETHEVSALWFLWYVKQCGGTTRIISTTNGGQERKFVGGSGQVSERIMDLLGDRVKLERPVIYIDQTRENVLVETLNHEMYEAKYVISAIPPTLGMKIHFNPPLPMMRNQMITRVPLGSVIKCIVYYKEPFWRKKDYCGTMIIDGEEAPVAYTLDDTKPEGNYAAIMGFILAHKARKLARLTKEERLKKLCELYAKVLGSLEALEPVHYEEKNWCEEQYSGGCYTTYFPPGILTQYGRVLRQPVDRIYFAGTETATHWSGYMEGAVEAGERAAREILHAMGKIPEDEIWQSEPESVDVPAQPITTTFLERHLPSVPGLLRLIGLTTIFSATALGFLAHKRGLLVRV
# Experimental: as §1, §2, §3
# hMAO-A [2] = target: T1, hMAO-A; test: MAO-Glow luminescence screen of KKRs at 100 μM; conditions: from screen at 100 μM, 37 °C, 60 min, LDS 40 μM
# Experimental: We optimized our control hMAO-A and hMAO-B isozymes reactions in the incubation condition, at 37 °C for 1 h, by performing a luminescence assay using the MAO-Glow™ kit. Upon arrival, each isozyme was diluted with 10 mM HEPES in cold HBSS of pH 7.4. Afterward, the diluted isozymes were kept at −80 °C until use. Enzyme concentration optimization was accomplished by testing ten 2X serially diluted hMAO-A and hMAO-B concentrations for a final range of 7.00–0.01 U/mL each. The tested isozymes were incubated with LDS of 40 and 4 μM for isozymes A and B, respectively (recommended by Promega protocol), and a maximum of used DMSO of 1% final concentration. Different isozyme concentrations reactions at their initial velocities were monitored. Consequently, their required concentrations were defined to be 0.44 U/mL each. Additionally, ten different LDS concentrations, ranging from 0.3–150 μM, were monitored for optimizing and validating the linearity of the initial reaction for the hMAO-A mode of action. Subsequently, we chose a saturated substrate of 75 μM as a required concentration for the hMAO-A enzyme kinetic reactions.
# as §1
Compound,MAO isozyme selectivity (hMAO-A [1]),IC50 (hMAO-A [1]),IC50 (hMAO-B),IC90 (hMAO-A [2]),hMAO-A relative selectivity (RSA) (hMAO-A [1])
"COc1cc(O)c(C(=O)/C=C/c2ccc(Cl)c(Cl)c2)c(OC)c1 [KKR11, (E)-3-(3,4-dichlorophenyl)-1-(2-hydroxy-4,6-dimethoxyphenyl)prop-2-en-1-one]",non-selective MAO-I,0.31 ± 0.03 µM,1.12 ± 0.09 µM,< 100 µM,–
"O=c1cc(-c2ccccc2)oc2cc(Cl)c(Cl)cc12 [KKR21, 6,7-dichloro-2-phenyl-4H-chromen-4-one]",highly selective MAO-AIs,0.019 µM,> 800 µM,< 100 µM,> 42105 folds
"O=C(/C=C/c1ccccc1)c1cc(Cl)cc(Cl)c1O [KKR20, (E)-1-(3,5-dichloro-2-hydroxyphenyl)-3-phenylprop-2-en-1-one]",in favor to inhibit MAO-B,2.94 ± 0.39 µM,0.79 ± 0.06 µM,< 100 µM,–
"O=c1c(O)c(-c2ccccc2)oc2c(Cl)cc(Cl)cc12 [KKR7, 6,8-dichloro-3-hydroxy-2-phenyl-4H-chromen-4-one]",highly selective MAO-AIs,16 ± 0.53 µM,> 800 µM,< 100 µM,> 42105 folds
"COc1cc(OC)c2c(=O)c(O)c(/C=C/c3cc(OC)c(OC)c(OC)c3)oc2c1 [KKR2A, (E)-3-hydroxy-5,7-dimethoxy-2-(3,4,5-trimethoxystyryl)-4H-chromen-4-one]",non-selective MAO inhibitory activity,1.03 ± 0.04 µM,0.2 ± 0.02 µM,< 100 µM,–
